This note sets out measurements from patent publication EP2902035B1, “Cell-permeable peptide inhibitors of the JNK signal transduction pathway for use in the treatment of inflammatory eye diseases” (Xigen Inflammation Ltd., priority 2010, dated 2012).

Common to all, as to assay type: in vivo, Lewis rats
One experiment has as its system ED1 positive cells. The experiment is described as follows: Quantification of infiltrating ED1 positive cells on histological sections in EIU. As to conditions: IVT injection (SEQ ID NO: 11: 0.2 µg/injection); 24 hours after LPS challenge; mean ± SEM. The procedure: (§1) For immunohistochemistry, eyeballs were collected and fixed for 1h at room temperature in phosphate buffered saline (PBS) containing 4% paraformaldehyde before being rinsed overnight in PBS. The next day, samples were embedded and frozen in optimal cutting-temperature (OCT) compound (Tissue-Tek®, Sakura Finetek, Zoeterwoude, Netherland) and stored at -80°C. Frozen antero-posterior sections of eyes (10 µm thick) were performed at the optic nerve level using a cryostat (Leica CM 3050S, Rueil-Malmaison, France) and mounted on super-frost slides for immunohistochemical analysis.
(§2) A second set of experiment was designed to evaluate the anti-inflammatory effect of the JNK-inhibitor (poly-)peptide of SEQ ID NO: 11 at the cellular and tissue level as well as the biodistribution of this molecule 24 hours after administration. Rats were randomized into 11 experimental groups. 6 groups of rats with uveitis: untreated uveitic rats, rats injected intravenously with NaCl or the JNK-inhibitor (poly-)peptide of SEQ ID NO: 11 and rats injected intravitreously with the vehicle, the JNK-inhibitor (poly-)peptide of SEQ ID NO: 11 or dexamethasone. The 5 additional groups without uveitis were: untreated healthy rats, rats treated by NaCl IV or the JNK-inhibitor (poly-)peptide of SEQ ID NO: 11 IV and rats injected IVT with NaCl or the JNK-inhibitor (poly-)peptide of SEQ ID NO: 11. Three eyes from separate rats were collected per group and used for immunohistochemistry.
(§3) To characterize the cellular infiltrate, sections were double-stained with ED1 and iNOS. […] After staining nuclei with DAPI (Sigma-Aldrich, Saint-Quentin Fallavier, France), sections were mounted in PBS/Glycerol (1/1) and observed by fluorescence photomicroscopy (FXA, Microphot, Nikon, Melville, USA). […] ED1 positive cells and polymorphonuclear cells, identified by the shape of their nuclei stained with DAPI, were quantified on histological sections. […] Results were expressed as mean ± standard error of the mean (SEM).

Experiment [1] has as its system polymorphonuclear cells (PMN). Nature of the experiment: Quantification of infiltrating polymorphonuclear cells on histological sections in EIU. As to conditions: IVT injection (SEQ ID NO: 11: 0.2 µg/injection); at 24 hours; mean ± SEM. Here is the method: as §1, §2, §3
Experiment [2] concerns Endotoxin-Induced Uveitis (EIU). Nature of the experiment: Scoring of Endotoxin-Induced Uveitis (EIU) by slit lamp. Conditions: intravitreous (IVT) administration at LPS challenge (SEQ ID NO: 11: 0.2 µg/injection); scored at 24 hours on a scale from 0 to 5; mean ± SEM. The procedure:
For intravenous (IV) injection, 100 µL of saline (NaCl 0.9%) or the JNK-inhibitor (poly-)peptide of SEQ ID NO: 11 (20 µg/kg in saline) were injected in a tail vein using a 25G-needle connected on a 1 mL syringe (Becton Dickinson, France). For intravitreous (IVT) injection, 5 µL of saline or the JNK-inhibitor (poly-)peptide of SEQ ID NO: 11 (0.2 µg/injection in saline) were injected in both eyes using a 30G disposable needle (BD-microfine syringe, nm Médical, Asnière, France). The IV dose of 20 µg/kg (i.e. 3.5 µg/rat in rats weighing 175g) was chosen according to studies showing that the JNK-inhibitor (poly-)peptide of SEQ ID NO: 11 is active at very low doses in other models. For intravitreous injections, the inventors used the minimal dose used in direct ear application after acute noise trauma in patients. This corresponds to 5% of the dose injected intravenously. […]
In a first set of experiment, 70 rats were randomized into 14 experimental groups with 5 rats per group. […] Clinical ocular inflammation was recorded only at 24 hours (see Scoring of Endotoxin-Induced Uveitis (EIU) section). […]
Animals were examined by slit lamp at 24 hours, the clinical peak of the disease in our experiments. The intensity of clinical ocular inflammation was scored on a scale from 0 to 5 for each eye as described previously 10: grade (0) indicates no inflammation; grade (1) indicates the presence of a minimal iris and conjunctival vasodilation but without the observation of flare or cells in the anterior chamber (AC); grade (2) indicates the presence of moderate iris and conjunctival vessel dilation but without evident flare or cells in the AC; grade (3) indicates the presence of intense iris vessels dilation, flare and less than 10 cells per slit lamp field in the AC; grade (4) indicates the presence of more severe clinical signs than grade 3, with more than 10 cells in the AC with or without the formation of a hypopion; grade (5) indicates the presence of intense inflammatory reaction, fibrin formation in the AC and total seclusion of the pupil. […]

For Dexamethasone sodium phosphate, in the experiment on ED1 positive cells, the “number of ED1 positive infiltrating cells” value came out at 79 ± 15. The “number of polymorphonuclear cells (PMN)” value in experiment [1] was determined as 42 ± 11. In experiment [2], this substance registered an EIU clinical scores of 1.8 ± 0.4 A.U.
